Values quoted from earlier work, collected in patent US9554996B2, “Compositions and methods for delivery of poorly soluble drugs” (Nanotherapeutics, Inc., priority 2007, dated 2017).
Structures can show the parent of a compound that is named as a salt.

Conditions: water

COc1ccc2c3c1O[C@H]1C(=O)CC[C@@]4(O)[C@@H](C2)N(C)CC[C@]314 [oxycodone hydrochloride, oxycodone]
solubility at neutral pH: 100 mg/ml
